Source: patent US20060111418A1, “Blood-brain barrier disruption inhibitor” (Mitsubishi Pharma Corporation, priority 2003, published 2006)

What was measured:
[1] = system: experimental autoimmune encephalomyelitis (EAE) model rats; assay: EAE model rats: cytokines in spinal fluid, protein ratio and blood-brain barrier permeability; assay type: in vivo, rat; settings: 3 mg/kg/day i.p., at 10, 11 and 12 days after sensitization, n=3, FIG. 7
Protocol: (§1) Experimental autoimmune encephalomyelitis (EAE) model rats were prepared by known methods (Int. J. Immunopharmacol, 7: 497-503, 1995). First, an encephalitogenic emulsion consisting of equivalent amounts of Guinea pig spinal cord, sterile phosphate buffered saline (PBS), and Freund's incomplete adjuvant was prepared. Thereafter, 10 mg/ml Mycobacterium tuberculosis H37Ra (Difco Laboratories) was added to the emulsion. Rats (inbred male Lewis rats; body weight: 200 to 250 g) were inoculated with 0.1 ml each of the thus obtained emulsion by subcutaneous administration of the emulsion to both plantae of the hind legs thereof, so as to prepare EAE model rats.
With regard to the control rats and EAE model rats, the concentrations of TNF-α and IL-1β in blood plasma and in spinal fluid, the protein ratio in spinal fluid/blood plasma, and blood-brain barrier permeability (the ratio of the concentration (Kp, app) of sodium fluorescein in brain/blood plasma, 20 minutes after administration by intravenous injection) were measured, in both a case where edaravone was administered or a case where edaravone was not administered. The terms “Kp” and “app” indicate apparent distribution ratios, which are values obtained by dividing the concentration of fluorescein in brain tissues by the concentration thereof in blood plasma after intravenous injection of the fluorescein (wherein the values are multiplied by 100, so as to be expressed on a percentage basis). It is to be noted that the specific gravity of brain tissues is expressed as 1 (because the unit of concentration is expressed as/g tissue weight). The amount of edaravone administered was set at 3 mg/kg/day (intraperitoneal administration). From 10 days after sensitization (administration of an antigen solution), edaravone was administered at intervals of 24 hours for 3 days (that is, 3 administrations at 10 days, 11 days, and 12 days after sensitization).

[2] = reported in Kawai et al. 1997; Wu et al. 2000; cited from earlier work
[3] = system: experimental autoimmune encephalomyelitis (EAE) model rats; assay: EAE model rats: limb neuroparalysis score (Paul's clinical score); assay type: in vivo, rat; settings: edaravone 3 mg/kg/day i.p., dexamethasone 1 mg/kg/day i.p., n=3, FIG. 8
Protocol: as §1
Moreover, limb neuroparalysis scores were evaluated in a group of EAE model rats to which no agents were administered (control), a group of EAE model rats to which dexamethasone was administered (1 mg/kg/day, intraperitoneal administration), and a group of EAE model rats to which edaravone was administered (3 mg/kg/day, intraperitoneal administration). The limb neuroparalysis scores were evaluated in accordance with the following standards.

[4] = system: blood-brain barrier coculture model (brain capillary endothelial cells and astrocytes); assay: Blood-brain barrier coculture model, permeability measured as TEER; assay type: cell-based, bovine brain capillary endothelial cells; rat astrocytes; settings: TNF-α (50 ng/ml) and/or IL-1β (5 ng/ml) added to the BBB coculture model; n=3; FIG. 2
Protocol: A blood-brain barrier coculture model was prepared by a method that had previously been reported (Eur. J. Pharm. Sci., 12: 215-222, 2001). Specifically, brain microcapillary endothelial cells and rat astrocytes were isolated, and the two types of cells were cultured on both sides of a Transwell™ filter, so as to prepare a coculture model. The preparation method of such a coculture model will be described below.
A brain capillary was isolated from a bovine brain. The meninx and white matter were eliminated therefrom, and the gray matter was recovered in DMEM (DMEM+S) to which 10% fetal calf serum had been added. Vascular fragments were prepared by homogenizing by hand, using a Wheaton homogenizer, and they were then captured on a 150-μm nylon mesh. The blood vessel was digested with collagenase, trypsin and DNAseI, in DMEM+S at 37° C. for 1 hour. […]
The brain capillary was inoculated into a plastic flask used for tissue culture, which had been covered with type IV collagen and fibronectin, and was allowed to adhere to a medium for 4 hours. Thereafter, the medium was exchanged with a growth medium (DMEM+S to which a 50% (v/v) astrocyte-conditioned medium and 125 μg/ml heparin had been added), and growing cells (large quantities of brain capillary endothelial cells and only small quantities of peritheliums) were cultured at 37° C. in 10% CO2. […]

Molecule	increased concentration of IL-1β in spinal fluid [1]	increased concentration of TNF-α in spinal fluid [1]	increased protein ratio in spinal fluid/blood plasma [1]	reactivity to active oxygen [2]	limb neuroparalysis scores [3]	TEER (transcellular endothelial electrical resistance) [4]
CC1=NN(c2ccccc2)C(=O)C1 [edaravone, 3-methyl-1-phenyl-2-pyrazolin-5-one]	inhibited	inhibited	inhibited	high reactivity	improved	
IL-1β: interleukin-1 beta, inflammatory cytokine						significantly reduced
TNF-α						significantly reduced
